# Data: US7449560B2, “Phosophoinositoglycan binding proteins” (Sanofi-Aventis Deutschland GmbH, priority 2002, dated 2008)
# What was measured:
# [1] = system: PIG(-P) receptor at hcDIGs; test: Competition of unlabeled PIG(-P) with radiolabeled YCN-PIG binding to hcDIGs; set-up: species or system rat; details: for Binding affinity: hcDIGs of rat adipocytes; for efficacy in the competition assay (displacement of radiolabeled YCN-PIG from hcDIGs): unlabeled competitor
# Description: (§1) 10 μl, of radiolabeled YCN-PIG or IcGce1p (60,000-80,000 dpm/nmol, final conc. 5 μM) was added to 40 μl of suspended plasma membranes, microsomes or hc/IcDIGs (40-80 μg of protein) in binding buffer in the absence or presence of unlabeled competitor (as indicated in the figure legends) in a total volume of 100 μl and incubated (30 min, 4° C.). For separation of membranes from the incubation medium, 45 μl aliquots were carefully layered over 200 μl, oil layers consisting of dibutyl phthalate and dioctyl phthalate (1/1 by vol., final density 1.012) in case of plasma membranes/microsomes or dibutyl phthalate and dinonyl phthalate (1/9 by vol., final density […]) in case of hc/IcDIGs in 0.4 ml precooled (4° C.) centrifugation tubes (microtubes no. 72.700, Sarstedt, Germany). […] After rigorous shaking (16 h, 25° C.), the radioactivity was counted in 9 ml of ACSII scintillation cocktail (Beckman). Under these conditions, sticking to the tube walls and partitioning into the oil layer of both radiolabeled YCN-PIG and IcGce1p accounted for 50-120 dpm (i.e. less than 0.5% of total radioactivity used per incubation) and therefore was not considered for calculation of binding data. Typical recoveries of plasma membranes and microsomes were 78-85% and 65-80%, respectively, and of hcDIGs and IcDIGs 83-92% and 70-78%, respectively, according to protein determination.
# Radiolabeled YCN−PIG (18,000-22,000 dpm) was incubated (1 h, 4° C.) with hcDIGs (6.5 μg protein) in the absence or presence of increasing amounts of unlabeled YCN-PIG, YCN+PIG37, YMN-PIG, PIG37 and YCN (Competition). The membrane fractions/DIGs were subjected to oil-layer-centrifugation, recovered with/from the pellet/top of the oil layer, solubilized and counted for radioactivity.
# [2] = system: IcGce1p binding site at hcDIGs; test: Competition of synthetic PIG(-P) with radiolabeled IcGce1p binding to hcDIGs; set-up: species or system rat
# Description: (§2) 10 μl, of radiolabeled YCN-PIG or IcGce1p (60,000-80,000 dpm/nmol, final conc. 5 μM) was added to 40 μl of suspended plasma membranes, microsomes or hc/IcDIGs (40-80 μg of protein) in binding buffer in the absence or presence of unlabeled competitor (as indicated in the figure legends) in a total volume of 100 μl and incubated (30 min, 4° C.). […] After rigorous shaking (16 h, 25° C.), the radioactivity was counted in 9 ml of ACSII scintillation cocktail (Beckman). Under these conditions, sticking to the tube walls and partitioning into the oil layer of both radiolabeled YCN-PIG and IcGce1p accounted for 50-120 dpm (i.e. less than 0.5% of total radioactivity used per incubation) and therefore was not considered for calculation of binding data. […]
# Radiolabeled Gce1p prepared from S. cerevisiae and treated with PI-specific PLC (B. cereus) was incubated (1 h, 4° C.) with hcDIGs (6.5 μg protein) isolated from untreated rat adipocytes in the absence or presence of unlabeled PIG-P. hcDIGs were subjected to oil-layer-centrifugation, solubilized and counted for radioactivity. […]
# [3] = system: PIG(-P) receptor at hcDIGs; test: Binding of radiolabeled YCN-PIG to hcDIGs (oil-layer centrifugation, Scatchard plot); set-up: species or system rat
# Description: as §1, with “determination. […]” for “determination.”
# Increasing amounts of radiolabeled YCN−PIG isolated from S. cerevisiae were incubated (1 h, 4° C.) with hcDIGs (6.5 μg protein), IcDIGs (6.5 μg), plasma membranes (47.5 μg) and microsomes (68 μg) from isolated rat adipocytes. The membrane fractions/DIGs were subjected to oil-layer-centrifugation, recovered with/from the pellet/top of the oil layer, solubilized and counted for radioactivity. Specific binding was calculated as the difference between radioactivity measured in the absence and presence of 10 μM unlabeled YCN−PIG. […]
# IcDIGs = test: Binding of radiolabeled YCN-PIG to IcDIGs; set-up: species or system rat; details: control adipocytes (no m-βCD)
# Description: as §2
# Radiolabeled YCN-PIG (12,000-18,000 dpm) was incubated (1 h, 4° C.) with the (proportional) amounts of hcDIGs and IcDIGs prepared from isolated rat adipocytes which had been pretreated (50 min, 30° C.) with increasing concentrations of m-βCD or left untreated. DIGs were subjected to oil-layer-centrifugation, recovered from top of the oil layer, solubilized and counted for radioactivity measured in the absence and presence of 10 μM unlabeled YCN-PIG. […]
# [4] = system: CIR (115 kDa polypeptide); test: [14C]NEM-labeling and trypsin/NaCl release of CIR from rat adipocytes; type: cell-based; details: adipocytes treated before labeling
# Description: For trypsin/NaCl-treatment, 2 ml of adipocyte suspension (3.5×10^6 cells/ml) in KRH containing 5 mM glucose was incubated (20 min, 30° C.) in the presence of 100 μg/ml trypsin. Soy bean trypsin inhibitor (final conc. 100 μg/ml) and 2 ml of KRH containing 1 M NaCl and 0.5% BSA were added and the incubation (10 min, 22° C.) continued. For NEM-treatment, 1 ml of adipocyte suspension (3.5×10^6 cells/ml) in KRH containing 5 mM glucose was incubated (30 min, 25° C.) with NEM (1.5 mM final conc.) and then with DTT (15 mM final conc., 5 min). After the treatments, the cells were centrifuged (1500×g, 5 min, swing-out rotor) and the infranatant removed by suction. The cell suspension left (about 0.5 ml) was supplemented with 10 ml of KRH containing 0.5% BSA and then centrifuged again (500×g, 1 min, swing-out rotor). […] Proteins of the medium contained in the lower part of the tubes were precipitated (10% TCA, two acetone washes), suspended in Laemmli sample buffer and analyzed by SDS-PAGE. […]
# Phosphorimages are shown from a typical experiment repeated three times with similar results. Quantitative evaluation of four different adipocyte incubations with triplicate measurements given as arbitrary units (mean±SD) with the amount of CIR released from trypsin/NaCl-treated control cells set at 100.
Substance,Binding affinity [1],efficacy in the competition assay (displacement of radiolabeled YCN-PIG from hcDIGs) [1],Competition of IcGce1p binding [2],"Bmax ([3]; Scatchard plot analysis, radiolabeled YCN-PIG)","Bmax higher vs untreated ([3]; hcDIGs from PI-specific PLC-pretreated adipocytes, Scatchard) [fold]",increase in binding of YCN-PIG to hcDIGs ([3]; hcDIGs from adipocytes pretreated with GPI-specific PL (PI-specific PLC / GPI-specific PLD)) [%],YCN-PIG left associated with IcDIGs (IcDIGs) [%],stimulation of trypsin/NaCl-dependent release of [14C]NEM-labeled CIR [4] [%]
"HO—PO(H)O-6Manα1 (Manα1-2)-2-Manα1-6Manα1-4GluN1-6Ino-1,2-(cyclic)-phosphate [PIG37]",intermediate,significantly reduced efficacy,considerably less efficient,,,,,
Tyr-Cys-Asn-NH—(CH2)2—OH [YCN],low,very low activity,considerably less efficient,,,,,
"Tyr-Cys-Asn-NH—(CH2)2—O—PO(OH)O-6Manα1-2)2Manα1-6Manα1-4GluN1-6Ino-1,2-(cyclic)-phosphate [YCN-PIG, phosphoinositolglycan-peptide derived from yeast Gce1p GPI anchor; also chemically synthesized]",highest,,,50-200 pmol per mg protein of hcDIGs,2 to 3,200,20,
insulin: human insulin,,,,,,,,20
